Assay results: PubChem BioAssay (NCI)
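96-well plates; 48 h exposure; 5 concentrations. Endpoints by linear interpolation between flanking doses. Not reached: highest tested concentration assigned. TGI marks complete inhibition of growth.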

Tests used:
Test in all cases: growth of human tumour cells (NCI), 48 h
[1] = test system: DMS 114 small cell lung
[2] = test system: DMS 273 small cell lung
[3] = test system: HL-60(TB) leukemia
[4] = test system: HT29 colon
[5] = test system: KM20L2 colon
[6] = test system: M14 melanoma
[7] = test system: M19-MEL melanoma
[8] = test system: NCI-H460 lung
[9] = test system: OVCAR-8 ovarian
[10] = test system: SF-295 CNS
[11] = test system: U251 CNS
[12] = test system: SR leukemia
[13] = test system: NCI/ADR-RES ovarian

SMILES: CCCCCCC(C)OC(=O)/C=C(\CC(=O)OC(C)CCCCCC)C(=O)OC(C)CCCCCC (stereo not given)
- TGI [1]: > 100 µM
- TGI [2]: > 100 µM
- TGI [3]: > 100 µM
- TGI [4]: > 100 µM
- TGI [5]: > 100 µM
- TGI [6]: > 100 µM
- TGI [7]: > 100 µM
- TGI [8]: > 100 µM
- TGI [9]: > 100 µM
- TGI [10]: > 100 µM
- TGI [11]: > 100 µM

SMILES: CCN(CC)CCCC(C)NC(=O)c1ccc2c(c1)C(=O)c1ccccc1C2=O (stereo not given)
- TGI [1]: 20 µM
- TGI [2]: 46.2 µM
- TGI [3]: 34.2 µM
- TGI [4]: 53 µM
- TGI [5]: 51.9 µM
- TGI [6]: 33.3 µM
- TGI [7]: 32 µM
- TGI [8]: 39.8 µM
- TGI [9]: 66 µM
- TGI [10]: 45.8 µM
- TGI [12]: 78.1 µM
- TGI [11]: 50.4 µM

SMILES: O=c1c2ccccc2[nH]c2cc(O)cc(O)c12
- TGI [2]: > 100 µM
- TGI [3]: > 100 µM
- TGI [4]: > 100 µM
- TGI [6]: > 100 µM
- TGI [7]: > 100 µM
- TGI [8]: > 100 µM
- TGI [9]: > 100 µM
- TGI [10]: > 100 µM
- TGI [11]: > 100 µM

SMILES: NC1(C(=O)O)CCCC1
- TGI [1]: > 625 µM
- TGI [2]: > 625 µM
- TGI [3]: > 625 µM
- TGI [4]: > 625 µM
- TGI [5]: > 625 µM
- TGI [7]: > 625 µM
- TGI [8]: > 625 µM
- TGI [13]: > 625 µM
- TGI [9]: > 625 µM
- TGI [10]: > 625 µM
- TGI [11]: > 625 µM

SMILES: C=C1C(=O)O[C@@H]2[C@H](O)[C@@H](C)[C@@H]3C=CC(=O)[C@@]3(C)[C@H](OC(=O)C=C(C)C)[C@H]12
- TGI [1]: 6.57 µM
- TGI [2]: 3.24 µM
- TGI [3]: 0.412 µM
- TGI [4]: 3.82 µM
- TGI [5]: 5.12 µM
- TGI [7]: 2.7 µM
- TGI [8]: 6.02 µM
- TGI [13]: 6.42 µM
- TGI [9]: 8.53 µM
- TGI [10]: 7.27 µM
- TGI [11]: 3.5 µM

SMILES: O=C1c2ccccc2C(=O)c2c(O)ccc(O)c21
- TGI [1]: > 100 µM
- TGI [2]: > 100 µM
- TGI [3]: > 100 µM
- TGI [4]: > 100 µM
- TGI [6]: > 100 µM
- TGI [7]: 69.2 µM
- TGI [8]: > 100 µM
- TGI [9]: > 100 µM
- TGI [10]: > 100 µM
- TGI [11]: > 100 µM

SMILES: CS(=O)(=O)OCCCOS(C)(=O)=O
- TGI [1]: > 100 µM
- TGI [2]: > 100 µM
- TGI [3]: > 100 µM
- TGI [4]: > 100 µM
- TGI [5]: > 100 µM
- TGI [6]: > 100 µM
- TGI [7]: > 100 µM
- TGI [8]: > 100 µM
- TGI [9]: > 100 µM
- TGI [10]: > 100 µM
- TGI [12]: > 100 µM
- TGI [11]: > 100 µM

SMILES: COc1cc(C2c3cc4c(cc3[C@@H](Nc3cccc([N+](=O)[O-])c3)C3COC(=O)[C@H]23)OCO4)cc(OC)c1O (stereo not given in full)
- TGI [1]: 9.18 µM
- TGI [2]: 6.11 µM
- TGI [3]: 4.3 µM
- TGI [4]: 13.1 µM
- TGI [5]: > 42 µM
- TGI [7]: > 100 µM
- TGI [8]: 1.72 µM
- TGI [13]: > 54.2 µM
- TGI [9]: > 32.9 µM
- TGI [10]: 4.94 µM

SMILES: CCCCCCCCCCCCCCCCCCOCC(COP(=O)([O-])OCC[N+](C)(C)C)OC (stereo not given)
- TGI [1]: 26.8 µM
- TGI [2]: 10.5 µM
- TGI [3]: 13.6 µM
- TGI [4]: 23.5 µM
- TGI [5]: 9.02 µM
- TGI [6]: > 63.5 µM
- TGI [7]: 16.8 µM
- TGI [8]: 17.6 µM
- TGI [13]: 64.1 µM
- TGI [9]: 57.7 µM
- TGI [10]: 29.7 µM
- TGI [12]: > 60.1 µM
- TGI [11]: 42.8 µM

SMILES: Nc1ccc(Oc2ccc(C34CC5CC6C3CC3CC4C(C5)C6(c4ccc(Oc5ccc(N)c(O)c5)cc4)C3)cc2)cc1O
- TGI [3]: 3.27 µM
- TGI [4]: > 34.7 µM
- TGI [6]: 8.71 µM
- TGI [8]: > 36.1 µM
- TGI [13]: > 92.8 µM
- TGI [9]: > 46.7 µM
- TGI [10]: 15.3 µM
- TGI [12]: 8.49 µM
- TGI [11]: 13.6 µM

SMILES: Cn1c(=O)c2c(nc(Nc3ccc(Cl)cc3)n3c(=O)n(-c4ccccc4)c(=O)n23)n(C)c1=O
- TGI [3]: > 100 µM
- TGI [4]: > 100 µM
- TGI [6]: > 100 µM
- TGI [8]: > 100 µM
- TGI [13]: > 100 µM
- TGI [9]: > 100 µM
- TGI [10]: > 100 µM
- TGI [12]: > 100 µM
- TGI [11]: > 100 µM

SMILES: O=C1ON=C2C3CC4CC12CC1(C3)C(=O)ON=C41
- TGI [3]: > 100 µM
- TGI [4]: > 100 µM
- TGI [6]: > 100 µM
- TGI [8]: > 100 µM
- TGI [13]: > 100 µM
- TGI [9]: > 100 µM
- TGI [10]: > 100 µM
- TGI [12]: > 100 µM
- TGI [11]: > 100 µM

SMILES: N=c1c2c(=S)n(-c3ccccc3)c(=S)n(-c3ccccc3)c2nc(SCCN2CCOCC2)n1-c1ccccc1
- TGI [3]: 3.31 µM
- TGI [4]: 4.03 µM
- TGI [6]: 3.8 µM
- TGI [8]: 5.96 µM
- TGI [13]: 14.6 µM
- TGI [9]: 4.51 µM
- TGI [10]: 19.2 µM
- TGI [12]: 2.79 µM
- TGI [11]: 3.93 µM
